Assay results from patent US9879050B2, “Substituted urea depsipeptide analogs as activators of the CLPP endopeptidase” (priority 2013, dated 2018).
*1 amine or outer side, *2 acyl side, *3 side chain or, on linkers, in order; H or OH if unused. Where a SMILES comes first, the peptide text is derived from it. Bridges are numbered along the chain shown (N, C = ends). [ ]: non-standard residue; d: D form. The star is where a group is joined. Phe(3,5-F2) = N[C@@H](Cc1cc(F)cc(F)c1)C(=O)O; NHPh(4-CF3) = FC(F)(F)c1ccc(N*)cc1; Heptenoyl(2E) = CCCC/C=C/C(=O)*; aThr = C[C@H](O)[C@H](N)C(=O)O; Pip = O=C(O)[C@@H]1CCCCN1; CO = O=C([*:1])[*:2]

system: E. coli K12ΔtolC; test: Minimal inhibitory concentration, microbroth dilution; type: cell-based; details: not given
Summary of the method: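 Susceptibility testing used the CLSI dilution standard, with bacteria at ~10^5 cfu/mL exposed to a two-fold compound series beginning at 200 μM final. The endpoint is the lowest concentration showing no growth after overnight incubation (37 °C, aerobic).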

Going from C[C@@H]1C[C@H]2C(=O)OC[C@H](NC(=O)[C@H](Cc3ccccc3)NC(=O)Nc3ccc(N(C)C)cc3)C(=O)N3CCC[C@H]3C(=O)N3CCCC[C@H]3C(=O)N[C@@H](C)C(=O)N2C1 [Compound 5, (S)—N-((2R,6S,8aS,14aS,20S,23aS)-2,6-Dimethyl-5,8,14,19,23-Pentaoxooctadecahydro-1H,5H,14H,19H-Pyrido[2,1-1]Dipyrrolo[2,1-C:2′,1′-L][1]Oxa[4,7,10,13]Tetraazacyclohexadecin-20-Yl)-2-(3-(4-(Dimethylamino)Phenyl)Ureido)-3-Phenylpropanamide] to C[C@@H]1C[C@H]2C(=O)OC[C@H](NC(=O)[C@H](Cc3ccccc3)NC(=O)Nc3ccc(Cl)cc3)C(=O)N3CCC[C@H]3C(=O)N3CCCC[C@H]3C(=O)N[C@@H](C)C(=O)N2C1 [Compound 3, (S)-2-(3-(4-Chlorophenyl)Ureido)-N-((2R,6S,8aS,14aS,20S,23aS)-2,6-Dimethyl-5,8,14,19,23-Pentaoxooctadecahydro-1H,5H,14H,19H-Pyrido[2,1-I]Dipyrrolo[2,1-C:2′,1′-L][1]Oxa[4,7,10,13]Tetraazacyclohexadecin-20-Yl)-3-Phenylpropanamide], the “Minimal Inhibitory Concentration E. coli K12ΔtolC” value falls from 50 µM to 25 µM (2-fold).

Going from C[C@@H]1C[C@H]2C(=O)OC[C@H](NC(=O)[C@H](Cc3ccccc3)NC(=O)Nc3ccccc3Cl)C(=O)N3CCC[C@H]3C(=O)N3CCCC[C@H]3C(=O)N[C@@H](C)C(=O)N2C1 [Compound 7, (S)-2-(3-(2-Chlorophenyl)Ureido)-N-((2R,6S,8aS,14aS,20S,23aS)-2,6-Dimethyl-5,8,14,19,23-Pentaoxooctadecahydro-1H,5H,14H,19H-Pyrido[2,1-I]Dipyrrolo[2,1-C:2′,1′-L][1]Oxa[4,7,10,13]Tetraazacyclohexadecin-20-Yl)-3-Phenylpropanamide] to C[C@@H]1C[C@H]2C(=O)OC[C@H](NC(=O)[C@H](Cc3ccccc3)NC(=O)Nc3cccc(Cl)c3)C(=O)N3CCC[C@H]3C(=O)N3CCCC[C@H]3C(=O)N[C@@H](C)C(=O)N2C1 [Compound 9, (S)-2-(3-(3-Chlorophenyl)Ureido)-N-((2R,6S,8aS,14aS,20S,23aS)-2,6-Dimethyl-5,8,14,19,23-Pentaoxooctadecahydro-1H,5H,14H,19H-Pyrido[2,1-I]Dipyrrolo[2,1-C:2′,1′-L][1]Oxa[4,7,10,13]Tetraazacyclohexadecin-20-Yl)-3-Phenylpropanamide], the “Minimal Inhibitory Concentration E. coli K12ΔtolC” value falls from 200 µM to 25 µM (8-fold).

In the case of COc1ccc(NC(=O)N[C@@H](Cc2ccccc2)C(=O)N[C@H]2COC(=O)[C@@H]3C[C@@H](C)CN3C(=O)[C@H](C)NC(=O)[C@@H]3CCCCN3C(=O)[C@@H]3CCCN3C2=O)cc1 [Compound 6, (S)—N-((2R,6S,8aS,14aS,20S,23aS)-2,6-Dimethyl-5,8,14,19,23-Pentaoxooctadecahydro-1H,5H,14H,19H-Pyrido[2,1-1]Dipyrrolo[2,1-C:2′,1′-L][1]Oxa[4,7,10,13]Tetraazacyclohexadecin-20-Yl)-2-(3-(4-Methoxyphenyl)Ureido)-3-Phenylpropanamide], the “Minimal Inhibitory Concentration E. coli K12ΔtolC” value is reported as 50 µM.

system: not listed separately; test: Microsomal metabolic stability determination; details: CD-1, mouse, microsomes, pH 7.4
Procedure: Compounds were initially prepared by dissolving them into DMSO at a final concentration of 10 mM. NADPH regenerating solutions A and B and mouse liver microsomes (CD-1) were obtained from BD Gentest (Woburn, Mass.). Ninety-six well deep well plates were obtained from MidWest Scientific Inc (Valley Park, Mo.).
Sample preparation for microsomal stability was modified from methods of Di, L., et al., Int J Pharm. 2005 Jun. 13; 297(1-2): 110-9. A set of incubation times of 0, 15, 30, 60, 120, and 240 minutes were used. Mouse liver microsomal solutions were prepared by adding 58 μL of concentrated human or mouse liver microsomes (20 mg/mL protein concentration) to 1.756 mL of 0.1 M potassium phosphate buffer (pH 7.4) and 5 μL of 0.5 M EDTA to make a 0.6381 mg/mL (protein) microsomal solution. NADPH regenerating agent contained 113 μL of NADPH A, 23 μL of NADPH B, and 315 μL of 0.1 M potassium phosphate buffer (pH 7.4). The diluted test compound solutions (2 μL) were each added directly to a 1.79 mL of liver microsomal solution. This solution was mixed and 90 μL was transferred to 6 time points plates (each in triplicate wells). For the time 0 plate, 225 μL of cold acetonitrile with internal standard ([…] warfarin) was added to each well, followed by addition of NADPH regenerating agent (22.5 μL) and no incubation. For other five time points' plate, NADPH regenerating agent (22.5 μL) was added to each well to initiate the reaction. The plates were incubated at 37° C. for the required time, followed by quenching of the reaction by adding 225 μL of cold acetonitrile with internal standard (4 μg/ml warfarin). All of the plates were sealed and mixed well at 600 rpm for 10 minutes followed by centrifugation at 4000 rpm for 20 minutes. The supernatants (120 μL) were transferred to analytical plates for analysis by LCMS. LCMS conditions were described in the materials and instrumentation section above. The metabolic stability is evaluated via the half-life from least-squares fit of the multiple time points based on first-order kinetics.

First: C[C@@H]1NC(=O)[C@@H]2CCCCN2C(=O)[C@@H]2CCCN2C(=O)[C@@H](NC(=O)[C@H](Cc2cc(F)cc(F)c2)NC(=O)Nc2ccc(C(F)(F)F)cc2)[C@H](C)OC(=O)[C@@H]2CCCN2C1=O [Compound 16, (S)-3-(3,5-Difluorophenyl)-N-((6S,8aS,14aS,20S,21 S,23aS)-6,21-Dimethyl-5,8,14,19,23-Pentaoxooctadecahydro-1H,5H,14H,19H-Pyrido[2,1-I]Dipyrrolo[2,1-C:2′,1′-L][1]Oxa[4,7,10,13]Tetraazacyclohexadecin-20-Yl)-2-(3-(4-(Trifluoromethyl)Phenyl)Ureido)Propanamide] ({NHPh(4-CF3)-CO}-[Phe(3,5-F2)][aThr]P[Pip]AP; ester 2-C)
Second: Cc1ccc(NC(=O)N[C@@H](Cc2cc(F)cc(F)c2)C(=O)N[C@@H]2C(=O)N3CCC[C@H]3C(=O)N3CCCC[C@H]3C(=O)N[C@@H](C)C(=O)N3CCC[C@H]3C(=O)O[C@H]2C)cc1 [Compound 15, (S)-3-(3,5-Difluorophenyl)-N-((6S,8aS,14aS,20S,21 S,23aS)-6,21-Dimethyl-5,8,14,19,23-Pentaoxooctadecahydro-1H,5H,14H,19H-Pyrido[2,1-I]Dipyrrolo[2,1-C:2′,1′-L][1]Oxa[4,7,10,13]Tetraazacyclohexadecin-20-Yl)-2-(3-(P-Tolyl)Ureido)Propanamide]
The half-life of the first is 2.3-fold higher: 42 min for the first, 18 min for the second.

First: Cc1ccc(NC(=O)N[C@@H](Cc2cc(F)cc(F)c2)C(=O)N[C@@H]2C(=O)N3CCC[C@H]3C(=O)N3CCCC[C@H]3C(=O)N[C@@H](C)C(=O)N3C[C@@H](C)C[C@H]3C(=O)O[C@H]2C)cc1 [Compound 18, (S)-3-(3,5-Difluorophenyl)-2-(3-(P-Tolyl)Ureido)-N-((2R,6S,8aS,14aS,20S,21S,23aS)-2,6,21-Trimethyl-5,8,14,19,23-Pentaoxooctadecahydro-1H,5H,14H,19H-Pyrido[2,1-I]Dipyrrolo[2,1-C:2′,1′-L][1]Oxa[4,7,10,13]Tetraazacyclohexadecin-20-Yl)Propanamide]
Second: C[C@H]1C[C@H]2C(=O)O[C@@H](C)[C@H](NC(=O)[C@H](Cc3cc(F)cc(F)c3)NC(=O)Nc3ccc(C(F)(F)F)cc3)C(=O)N3CCC[C@H]3C(=O)N3CCCC[C@H]3C(=O)N[C@@H](C)C(=O)N2C1 [Compound 19, (S)-3-(3,5-Difluorophenyl)-2-(3-(4-(Trifluoromethyl)Phenyl)Ureido)-N-((2R,6S,8aS,14aS,20S,21S,23aS)-2,6,21-Trimethyl-5,8,14,19,23-Pentaoxooctadecahydro-1H,5H,14H,19H-Pyrido[2,1-I]Dipyrrolo[2,1-C:2′,1′-L][1]Oxa[4,7,10,13]Tetraazacyclohexadecin-20-Yl)Propanamide]
The half-life of the first is 2-fold higher: 60 ± 6 min for the first, 30 min for the second.

First: CCCC/C=C/C(=O)N[C@@H](Cc1cc(F)cc(F)c1)C(=O)N[C@@H]1C(=O)N2CCC[C@H]2C(=O)N2CCCC[C@H]2C(=O)N[C@@H](C)C(=O)N2CCC[C@H]2C(=O)O[C@H]1C [ADEP 2719, reference compound] ({Heptenoyl(2E)}-[Phe(3,5-F2)][aThr]P[Pip]AP; ester 2-C)
Second: C[C@@H]1NC(=O)[C@@H]2CCCCN2C(=O)[C@@H]2CCCN2C(=O)[C@@H](NC(=O)[C@H](Cc2cc(F)cc(F)c2)NC(=O)Nc2ccc3c(c2)OCO3)[C@H](C)OC(=O)[C@@H]2CCCN2C1=O [Compound 17, (S)-2-(3-(Benzo[D][1,3]Dioxol-5-Yl)Ureido)-3-(3,5-Difluorophenyl)-N-((6S,8aS,14aS,20S,21 S,23aS)-6,21-Dimethyl-5,8,14,19,23-Pentaoxooctadecahydro-1H,5H,14H,19H-Pyrido[2,1-I]Dipyrrolo[2,1-C:2′,1′-L][1]Oxa[4,7,10,13]Tetraazacyclohexadecin-20-Yl)Propanamide]
The half-life of the first is 81-fold lower: 6 min for the first, 486 ± 66 min for the second.

Going from Cc1ccc(NC(=O)N[C@@H](Cc2ccccc2)C(=O)N[C@H]2COC(=O)[C@@H]3C[C@@H](C)CN3C(=O)[C@H](C)NC(=O)[C@@H]3CCCCN3C(=O)[C@@H]3CCCN3C2=O)cc1 [Compound 23, (S)—N-((2R,6S,8aS,14aS,20S,23aS)-2,6-Dimethyl-5,8,14,19,23-Pentaoxooctadecahydro-1H,5H,14H,19H-Pyrido[2,1-I]Dipyrrolo[2,1-C:2′,1′-L][1]Oxa[4,7,10,13]Tetraazacyclohexadecin-20-Yl)-3-Phenyl-2-(3-(P-Tolyl)Ureido)Propanamide] to C[C@H]1C[C@H]2C(=O)O[C@@H](C)[C@H](NC(=O)[C@H](Cc3cc(F)cc(F)c3)NC(=O)Nc3ccc4c(c3)OCO4)C(=O)N3CCC[C@H]3C(=O)N3CCCC[C@H]3C(=O)N[C@@H](C)C(=O)N2C1 [Compound 20, (S)-2-(3-(Benzo[D][1,3]Dioxol-5-Yl)Ureido)-3-(3,5-Difluorophenyl)-N-((2R,6S,8aS,14aS,20S,21 S,23aS)-2,6,21-Trimethyl-5,8,14,19,23-Pentaoxooctadecahydro-1H,5H,14H,19H-Pyrido[2,1-I]Dipyrrolo[2,1-C:2′,1′-L][1]Oxa[4,7,10,13]Tetraazacyclohexadecin-20-Yl)Propanamide], the half-life rises from 178 ± 18 min to 414 ± 78 min (2.3-fold).
